Legend:
[1] = Storage stability at room temperature (air oxidation, LC-MS); assay type: physicochemical; conditions: stored in a scintillation vial at room temperature for three months; degradation by air oxidation; separation by reverse phase HPLC
Protocol: Separation by Gilson reverse phase HPLC provided two new products (Example 114 and 115) and 60% of the parent compound recovered. These compounds were analyzed by NMR and LC-MS to determine the structures.

[2] = target: T1, CCR-2 receptor (Homo sapiens, UniProt P41597); assay: CCR-2 binding assay (inhibition of 125I-MCP-1 binding); conditions: cis isomer compared with trans isomer, resolved on preparation plate; assay not specified
T1 construct: the endogenous CCR-2 receptor on various cell types including monocytes, THP-1 cells; endogenous in cells; host or cells: monocytes, THP-1 cells (or eukaryotic cells expressing the cloned receptor)
T1 sequence (P41597 whole entry): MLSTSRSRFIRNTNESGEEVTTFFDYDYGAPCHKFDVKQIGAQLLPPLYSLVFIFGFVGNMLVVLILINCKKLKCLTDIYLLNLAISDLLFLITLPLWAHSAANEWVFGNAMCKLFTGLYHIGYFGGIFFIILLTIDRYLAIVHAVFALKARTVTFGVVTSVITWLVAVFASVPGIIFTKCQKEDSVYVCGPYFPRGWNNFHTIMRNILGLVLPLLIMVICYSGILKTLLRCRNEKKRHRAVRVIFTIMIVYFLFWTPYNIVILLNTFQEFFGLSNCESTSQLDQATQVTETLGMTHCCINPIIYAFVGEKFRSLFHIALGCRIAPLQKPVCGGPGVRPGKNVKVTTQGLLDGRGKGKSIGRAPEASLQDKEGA
Protocol: Receptor affinity in a CCR-2 binding assay was determined by measuring inhibition of ^125I-MCP-1 to the endogenous CCR-2 receptor on various cell types including monocytes, THP-1 cells, or after heterologous expression of the cloned receptor in eukaryotic cells. The cells were suspended in binding buffer (50 mM HEPES, pH 7.2,5 mM MgCl2, 1 mM CaCl2, and 0.50% BSA) with and added to test compound or DMSO and ^125I-MCP-1 at room temperature for 1 h to allow binding. The cells were then collected on GFB filters, washed with 25 mM HEPES buffer containing 500 mM NaCl and cell bound ^125I-MCP-1 was quantified.

parent compound recovered after storage [1] [%]	relative activity of cis vs trans isomer [2]	SMILES
60	–	CC(C)[C@]1(C(=O)N2CCc3ccc(C(F)(F)F)cc3C2)CC[C@@H](NC2CCOCC2F)C1 (some centres unmarked) [Example 96]
–	more active	CSC1(C(=O)N2CCc3ccc(C(F)(F)F)cc3C2)CC[C@@H](NC2CCOCC2)C1 (some centres unmarked) [Example 3]

— US7166614B2, “Tetrahydropyranyl cyclopentyl tetrahydroisoquinoline modulators of chemokine receptor activity” (Merck & Co., Inc., priority 2002, dated 2007)
